The target of the first assay is T1, 5-HT2A (Rattus norvegicus, UniProt P14842).
T1 construct: from tissue; host or cells: rat aorta
T1 sequence (P14842 whole entry): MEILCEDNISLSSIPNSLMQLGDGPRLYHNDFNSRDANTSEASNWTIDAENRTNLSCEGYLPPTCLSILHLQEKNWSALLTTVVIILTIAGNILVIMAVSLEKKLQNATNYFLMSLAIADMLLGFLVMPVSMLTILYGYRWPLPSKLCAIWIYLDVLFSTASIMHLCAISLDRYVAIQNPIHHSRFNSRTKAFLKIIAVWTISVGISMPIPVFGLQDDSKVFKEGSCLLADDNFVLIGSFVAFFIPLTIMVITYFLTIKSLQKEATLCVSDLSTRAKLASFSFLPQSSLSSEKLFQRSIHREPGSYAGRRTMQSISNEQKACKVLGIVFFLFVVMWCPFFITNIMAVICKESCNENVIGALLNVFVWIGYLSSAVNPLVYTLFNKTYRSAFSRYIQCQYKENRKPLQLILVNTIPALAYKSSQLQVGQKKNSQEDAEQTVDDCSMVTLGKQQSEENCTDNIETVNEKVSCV
Nature of the assay: Receptor selectivity, rat aorta. Conditions: read-out: pKB 5-HT2A (converted). Type of assay: cell-based. How it is done: Selectivity of action of the present compounds was tested against a range of different receptors, e.g., β1- and α2-adrenergic, muscarinic cholinergic, serotoninergic (5-HT2A), histaminergic (H1), angiotensin II, endothelin (ETA and B,), as well as calcium and potassium channels. Rat aorta was used to study the effect of the compounds on 5-HT2A, ETA, calcium and potassium channels. Angiotensin II receptor antagonistic activity was studied in rabbit aorta. Muscarinic cholinergic receptor and ETB receptor antagonistic activity was studied in rat trachea, while guinea pig trachea was used to study H1 receptor antagonistic activity. Electrically stimulated rat vas deferens was used to investigate the effect of α2-adrenoceptors, while β1-adrenoceptor antagonistic activity was studied using electrically stimulated rat ventricular strips. Results of this selectivity study is shown in (Table 2).
Take `COc1ccccc1N1CCN(CCCN2C(=O)CCC2=O)CC1` [Compound 2, 1-[4-(2-Methoxyphenyl)piperazin-1-yl]3-(2,5-dioxopyrrolidin-1-yl)propane]: the Kb was 0.0251 µM.

Consider `COc1ccccc1N1CCN(CCCCN2C(=O)CCC2=O)CC1` [Compound 9, 1-[4-(2-Methoxyphenyl)piperazin-1-yl]-4-(2,5-dioxopyrrolidin-1-yl)butane], for which the Kb was 0.0126 µM.

Consider `COc1ccccc1N1CCN(CCCN2C(=O)CCCC2=O)CC1` [Compound 13, 1-[4-(2-Methoxyphenyl)piperazin-1-yl]-3-(2,6-dioxopiperidin-1-yl)propane], for which the Kb was 0.01 µM.

A further assay has as its target T2, α1A-adrenoceptor (Rattus norvegicus, UniProt P43140).
T2 construct: from tissue; host or cells: rat submaxillary gland membranes
T2 sequence (P43140 1-466): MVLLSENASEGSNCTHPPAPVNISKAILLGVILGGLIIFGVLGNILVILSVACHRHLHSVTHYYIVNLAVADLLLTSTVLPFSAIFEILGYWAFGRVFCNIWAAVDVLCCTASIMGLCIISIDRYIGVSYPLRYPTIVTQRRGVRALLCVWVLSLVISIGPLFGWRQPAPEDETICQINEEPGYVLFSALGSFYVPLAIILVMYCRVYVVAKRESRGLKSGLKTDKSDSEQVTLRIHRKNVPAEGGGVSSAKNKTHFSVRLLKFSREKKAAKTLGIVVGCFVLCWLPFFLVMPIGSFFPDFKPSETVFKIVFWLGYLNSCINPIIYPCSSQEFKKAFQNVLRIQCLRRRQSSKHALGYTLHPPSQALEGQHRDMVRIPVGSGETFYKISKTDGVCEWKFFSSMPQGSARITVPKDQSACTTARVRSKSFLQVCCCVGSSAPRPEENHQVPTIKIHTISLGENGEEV
Description: Receptor binding assay, [3H]prazosin, rat submaxillary membranes. Conditions: rat submaxillary membranes, 0.5 nM [3H]prazosin; read-out: RBA (Ki nM) α1A. How it is done: Receptor binding assays, (RBA's) were performed for native α1-adrenoceptors. Rat submaxillary and rat liver membrane preparations were used to assess the affinity for α1A and α1B subtypes, respectively. Aliquots of membrane protein ([…]) were incubated in a final volume of […] assay buffer (50 mM Tris, 0.5 mM EDTA at pH 7.4) with 0.5 nM [^3H] prazosin for 60 mins at 28 ° C. Reaction was stopped by rapid filtration on Millipore filters. Filters were dried and bound radioactivity counted. Non-specific binding was determined in the presence of 0.3 mM prazosin.
With `COc1ccccc1N1CCN(CCCN2C(=O)CCC2=O)CC1` [Compound 2, 1-[4-(2-Methoxyphenyl)piperazin-1-yl]3-(2,5-dioxopyrrolidin-1-yl)propane], the Ki (in general, a measure of affinity in units of concentration, obtained from inhibition or displacement) was determined as 19 nM.

With `COc1ccccc1N1CCN(CCCCN2C(=O)CCC2=O)CC1` [Compound 9, 1-[4-(2-Methoxyphenyl)piperazin-1-yl]-4-(2,5-dioxopyrrolidin-1-yl)butane], the Ki amounted to 1 nM.

Turning to `COc1ccccc1N1CCN(CCCN2C(=O)CCCC2=O)CC1` [Compound 13, 1-[4-(2-Methoxyphenyl)piperazin-1-yl]-3-(2,6-dioxopiperidin-1-yl)propane], the Ki was determined as 3 nM.

The test system of the next assay is anaesthetized dogs (intraurethral pressure). Nature of the assay: In vivo selectivity study, phenylephrine response on intraurethral (prostatic) pressure in anaesthetized dogs. Set-up: species or system dog. Conditions: Canis lupus familiaris, iv 0.01-0.3 mg/kg, against phenylephrine, read-out: pseudo pKB Intraurethral Pressure (converted). On the procedure: Male mongrel dogs (12-20 Kg) were anaesthetized with pentobarbitone sodium (35 mg/kg, iv). Trachea was intubated for artificial respiration. Femoral artery and femoral vein were cannulated for recording blood pressure and for administration of drug solutions, respectively. Blood pressure was recorded on a polygraph through a pressure transducer. A paramedian incision was made lateral to the penis and the bladder was exposed. Urine was drained through a cannula put directly into the bladder and it was guided into the urethra gently and was placed at the prostatic urethra. Balloon was inflated with 2 cc air and its placement was confirmed by digital pressure. Intraurethral pressure was recorded on the polygraph through a pressure transducer. Graded dose response relationship of phenylephrine (1-16 μg/kg, iv) was obtained on prostatic pressure and blood pressure, prior to administration of the compounds of the present invention. Compounds 2, 9, and 13 (at dosages of 0.01, 0.03, 0.1, and 0.3 mg/kg) were administered intravenously 10 min before obtaining phenylephrine dose response curves. Results were analyzed and pseudo PKB values were calculated as described in Kenny et al (1996).
On to `COc1ccccc1N1CCN(CCCN2C(=O)CCC2=O)CC1` [Compound 2, 1-[4-(2-Methoxyphenyl)piperazin-1-yl]3-(2,5-dioxopyrrolidin-1-yl)propane], for which the Kb is 0.0251 µM.

As to `COc1ccccc1N1CCN(CCCCN2C(=O)CCC2=O)CC1` [Compound 9, 1-[4-(2-Methoxyphenyl)piperazin-1-yl]-4-(2,5-dioxopyrrolidin-1-yl)butane], the Kb is 0.0126 µM.

In the case of `COc1ccccc1N1CCN(CCCN2C(=O)CCCC2=O)CC1` [Compound 13, 1-[4-(2-Methoxyphenyl)piperazin-1-yl]-3-(2,6-dioxopiperidin-1-yl)propane], the Kb was 0.00794 µM.

A further assay has as its target T3, α1D-adrenoceptor (aorta) (Rattus norvegicus, UniProt P23944).
T3 construct: Aorta, prostate and spleen tissues were isolated from urethane anaesthetized (1.5 gm/kg) male wistar rats; from tissue; host or cells: isolated aorta of male Wistar rats
T3 sequence (P23944 1-561): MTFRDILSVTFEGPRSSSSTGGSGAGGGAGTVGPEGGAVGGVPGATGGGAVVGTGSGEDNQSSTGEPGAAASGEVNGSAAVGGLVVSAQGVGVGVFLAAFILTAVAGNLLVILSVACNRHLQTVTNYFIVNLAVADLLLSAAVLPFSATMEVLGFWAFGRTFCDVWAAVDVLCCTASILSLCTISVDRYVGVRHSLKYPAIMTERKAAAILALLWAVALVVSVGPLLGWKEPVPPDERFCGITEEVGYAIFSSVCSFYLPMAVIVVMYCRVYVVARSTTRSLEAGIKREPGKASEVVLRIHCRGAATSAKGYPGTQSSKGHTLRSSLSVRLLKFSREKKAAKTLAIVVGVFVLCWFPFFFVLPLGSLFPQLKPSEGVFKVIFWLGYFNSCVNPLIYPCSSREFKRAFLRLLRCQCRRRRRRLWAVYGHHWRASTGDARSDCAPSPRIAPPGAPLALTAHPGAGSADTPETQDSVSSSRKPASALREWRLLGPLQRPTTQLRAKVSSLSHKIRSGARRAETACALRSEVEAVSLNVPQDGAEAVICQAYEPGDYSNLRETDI
Nature of the assay: In vitro functional assay, norepinephrine-induced contraction of isolated aorta. Conditions: rat aorta, norepinephrine; read-out: In Vitro Functional Assay (pKB) α1D (converted). Type of assay: cell-based. The text has this: In order to study selectivity of action of the present compounds towards different α-adrenoceptor subtypes, the ability of these compounds to antagonize α1-adrenoceptor agonist induced contractile response of aorta (α1D), prostate (α1A) and spleen (α1B) was studied. Aorta, prostate and spleen tissues were isolated from urethane anaesthetized (1.5 gm/kg) male wistar rats. Isolated tissues were mounted in organ bath containing Krebs Henseleit buffer of the following composition (mM): NaCl 118; KCl 4.7; CaCl2 2.5; MgSO4·H2O 1.2; NaHCO3 25; KH2PO4 1.2; glucose 11.5. Buffer was maintained at 37° C. and aerated with a mixture of 95% O2 and 5% CO2. A resting tension of 2 g (aorta) or 1 g (spleen and prostate) was applied to tissues. Contractile response was monitored using a force displacement transducer and recorded on chart recorders. Tissues were allowed to equilibrate for 2 hours. At the end of equilibration period, concentration response curves to norepinephrine (aorta) and phenylephrine (spleen and prostate) were obtained in the absence and presence of the tested compound (at concentrations of 0.1, 1 and 10 μM). Antagonist affinity was calculated and expressed as PKB values in Table 1.
Consider `COc1ccccc1N1CCN(CCCN2C(=O)CCC2=O)CC1` [Compound 2, 1-[4-(2-Methoxyphenyl)piperazin-1-yl]3-(2,5-dioxopyrrolidin-1-yl)propane], for which the Kb is 0.0501 µM.

For `COc1ccccc1N1CCN(CCCCN2C(=O)CCC2=O)CC1` [Compound 9, 1-[4-(2-Methoxyphenyl)piperazin-1-yl]-4-(2,5-dioxopyrrolidin-1-yl)butane], the Kb was 0.00501 µM.

Turning to `COc1ccccc1N1CCN(CCCN2C(=O)CCCC2=O)CC1` [Compound 13, 1-[4-(2-Methoxyphenyl)piperazin-1-yl]-3-(2,6-dioxopiperidin-1-yl)propane], the Kb is 0.0126 µM.

(Values after patent US6410735B1, “1-(4-arylpiperazin-1-y1)-ω-[N-(α,ω-dicarboximido)]-alkanes useful as uro-selective α1-adrenoceptor blockers” (Ranbaxy Laboratories Limited, priority 1997, dated 2002).)
